The target of one experiment is T1, dopamine D2 receptor (Rattus norvegicus, UniProt P61169).
T1 construct: from tissue; host or cells: limbic brain tissue, homogenate
The experiment in a line: [3H]-spiperidone binding, limbic brain homogenate (D2 Spiper). The conditions noted are these: homogenized limbic brain tissue. The procedure:
High affinity for the dopamine D2 receptor was established by the standard experimental test procedure of Fields, et al., Brain Res., 136, […] (1977) and Yamamura et al., ed., Neurotransmitter Receptor Binding, Raven Press, N.Y. (1978) wherein homogenized limbic brain tissue is incubated with [^3 H]-spiperidone at various concentrations of test compound, filtered washed, and shaken with Hydrofluor scintillation cocktail (National Diagnostics) and counted in a Packard 460 CD scintillation counter.

Experiment [1] addresses T2, dopamine autoreceptor (D2 Quin.) (Rattus norvegicus, UniProt P61169).
T2 construct: homogenized rat striatal brain tissue is incubated; from tissue; host or cells: rat striatum, homogenate
Put plainly: [3H]-quinpirole binding, rat striatal homogenate (D2 Quin., dopamine autoreceptor affinity). The conditions noted are these: homogenized rat striatal brain tissue, read-out: IC50 (nM) D2 Qmin.

The record followed here is patent US5750556A, “2-(aminomethyl)-3,4,7,9-tetrahydro-2H-pyrano-[2,3-E]indol-8-ones and derivatives” (priority 1996, dated 1998).

T1 sequence (P61169 whole entry): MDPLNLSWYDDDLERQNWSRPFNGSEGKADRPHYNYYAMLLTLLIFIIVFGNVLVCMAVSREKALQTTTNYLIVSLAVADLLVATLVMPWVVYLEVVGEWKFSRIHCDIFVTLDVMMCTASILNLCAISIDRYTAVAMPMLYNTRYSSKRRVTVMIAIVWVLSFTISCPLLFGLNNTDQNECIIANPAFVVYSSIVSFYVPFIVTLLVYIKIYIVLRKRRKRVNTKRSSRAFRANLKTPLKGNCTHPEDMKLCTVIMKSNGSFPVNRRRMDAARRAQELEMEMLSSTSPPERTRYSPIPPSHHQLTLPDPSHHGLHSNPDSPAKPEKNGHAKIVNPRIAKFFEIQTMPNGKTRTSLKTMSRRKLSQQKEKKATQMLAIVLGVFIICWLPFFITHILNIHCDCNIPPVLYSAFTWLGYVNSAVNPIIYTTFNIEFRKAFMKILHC
T2 sequence (P61169 whole entry): as above

Compound `O=C1Cc2c(ccc3c2OC(CNCc2ccccc2)CC3)N1` (single isomer, unassigned; (+)) [Example 2a, (+)-2-(benzylamino-methyl)-3,4,9-tetrhydro-2H-pyrano[2,3-e]indol-8-one] gave a 50% inhibitory concentration (IC50) at dopamine D2 receptor of 734 nM.
`O=C1Cc2c(ccc3c2OC(CNCc2ccccc2)CC3)N1` (stereo not drawn) [Example 1a, 2-(Benzylamino-methyl)-3,4,7,9-tetrahydro-2H-pyrano-[2,3-e]indol-8-one] came in with an IC50 at dopamine D2 receptor of 142 nM.
Regarding `O=C1Cc2c(ccc3c2OC(CNCc2ccc(F)cc2)CC3)N1` (stereo not drawn) [Example 1b, 2-(4-Fluoro-benzylamino-methyl)-3,4,7,9-tetrahydro-2H-pyrano[2,3-e]indol-8-one], at dopamine D2 receptor, the IC50 was 310 nM.
The same measure, in the same setting: next, `O=C1Cc2c(ccc3c2OC(CNCc2ccccc2)CC3)N1` (single isomer, unassigned; (-)) [Example 2b, (-)-2-(benzylamino-methyl)-3,4,7,9-tetrhydro-2H-pyrano[2,3-e]indol-8-one]: 71.5 nM.
Take `COc1ccc(CNCC2CCc3ccc4c(c3O2)CC(=O)N4)cc1` (stereo not drawn) [Example 1c, 2-(4-Methoxy-benzylamino-methyl)-3,4,7,9-tetrahydro-2H-pyrano[2,3e]indol-8-one]: the IC50 at dopamine D2 receptor turned out to be 295 nM.
As for `Cc1ccc(CNCC2CCc3ccc4c(c3O2)CC(=O)N4)cc1` (stereo not drawn) [Example 1d, 2-(4-Methyl-benzylamino-methyl)-3,4,7,9-tetrahydro-2H-pyrano[2,3-e]indol8-one], the IC50 at dopamine D2 receptor amounted to 103 nM.
Turning to `Cc1ccc(CNCC2CCc3ccc4c(c3O2)CC(=O)N4)c(C)c1` (stereo not drawn) [Example 1f, 2-(2,4-Dimethyl-benzylamino-methyl)-3,4,7,9-tetrahydo-2H-pyrano[2,3-e]indol-8-one], the IC50 on dopamine D2 receptor amounted to 392 nM.
Consider `O=C1Cc2c(ccc3c2OC(CNCc2ccc(Cl)cc2)CC3)N1` (stereo not drawn) [Example 1e, 2-(4-Chloro-benzylamino-methyl)-3,4,7,9-tetrahydro-2H-pyrano[2,3-e]indol-8-one], for which the IC50 on dopamine D2 receptor is 148 nM; in experiment [1], 0.65 nM.
